Where “and” joins values, the source holds several entries; their conditions need not be identical. Identical values can stand only once.
Tests used:
[1] = system: auricle of hairless mouse (HR-1, female); test: External blood circulation enhancing action: vasodilatory effect (red spots) on auricle of hairless mouse; type: in vivo; design: key to Vasodilatory effect for hairless mouse (red spots, visual): ◯: clear red spots can be confirmed; Δ: weak red spots can be confirmed; x: no development of red spots; conditions: for Vasodilatory effect for hairless mouse (red spots, visual): applied to right ear; for Vasodilating effect: 5 wt % solution, solvents as in Tables 2 and 3
Protocol: The compound of each Example and capsaicin analog were compared for vasodilatory effect using auricle of hairless mouse. [Test method] A sample was applied to the right ear of hairless mouse (HR-1, female), and a control was applied to the left ear. Presence or absence of red spots development was visually evaluated, and evaluated according to the following indices. ◯: clear red spots can be confirmed Δ: weak red spots can be confirmed x: no development of red spots The samples were dissolved in liquid paraffin or ethanol. samples: Control: liquid paraffin or ethanol

[2] = Stability on contact with silica gel, yield (recovery rate) of PTLC purification as index; type: physicochemical
Protocol: Using vanillyl alcohol (1.70 g, 11.0 mmol) instead of piperonyl alcohol, and n-decanoic acid (1.72 g, 10 mmol) instead of 8-methylnonanoic acid in Example 1, a reaction similar to Example 1 was performed.
Using the yield (recovery rate) of purification by silica gel chromatography (PTLC) as an index, the stability of each Example compound was confirmed.

Yield (recovery rate) after purification by PTLC, index of stability [2]	Structure (SMILES)	Vasodilatory effect for hairless mouse (red spots, visual) ([1]; 5 wt % in ethanol)	Vasodilatory effect for hairless mouse (red spots, visual) ([1]; 5 wt % in liquid paraffin)	Vasodilating effect [1]	Stability on purification by PTLC (contact with silica gel), in words [2]	further results
	COc1cc(CNC(=O)CCCC/C=C/C(C)C)ccc1O [capsaicin, reference compound]	∘	∘			Vasodilatory effect for hairless mouse (red spots, visual) ([1]; 1 wt % in liquid paraffin): ∘
	CCC(C)CCCCC(=O)OCc1ccc(OC)cc1 (stereo not shown) [compound C-2, 4-methoxybenzyl 6-methyloctanoate]	x	x	did not show a vasodilating effect		
	CCOc1cc(COC(=O)CCCCCCC(C)C)ccc1O [compound H, 3-ethoxy-4-hydroxybenzyl 8-methylnonanoate]		∘	clear vasodilating effect, though the expression of the effect was slow		
	CCC(C)CCCCCC(=O)OCc1ccc(OC)c(O)c1 (stereo not shown) [compound B-2, Isovanillyl 7-methyl Nonanoate]	∘	x			Vasodilatory effect in words ([1]; 5 wt % in ethanol): vasodilatory effect was observed; Vasodilatory effect in words ([1]; 5 wt % in ethanol, listed as Compound B-2): showed a vasodilating effect; Vasodilatory effect, note in words (onset, duration) ([1]; 5 wt % in liquid paraffin): did not show a vasodilating effect
	COc1ccc(COC(=O)CCCCCC(C)C)cc1O [compound B-1, Isovanillyl 7-Methyloctanoate]		Δ	weak vasodilating effect		
	COc1cc(COC(=O)CCCCCC(C)C)ccc1O [nordihydrocapsiate, 4-hydroxy-3-methoxybenzyl 7-methyl-octanoate, reference compound]		∘			Vasodilatory effect for hairless mouse (red spots, visual) ([1]; 1 wt % in liquid paraffin): Δ
	COc1cc(COC(=O)CCCC/C=C/C(C)C)ccc1OC(C)=O [compound G-1, 4-acetoxy-3-methoxybenzyl (E)-8-methyl-6-nonenoate]		∘	strong vasodilating effect		
	COc1cc(COC(=O)CCCCCCC(C)C)ccc1O [dihydrocapsiate, 4-hydroxy-3-methoxybenzyl 8-methylnonanoate, reference compound]		∘			Vasodilatory effect for hairless mouse (red spots, visual) ([1]; 1 wt % in liquid paraffin): Δ
	COc1cc(CO)ccc1O [vanillyl alcohol, reference compound]	x	x			
	COc1ccc(COC(=O)CCCCCC(C)C)cc1 [compound C-1, 4-methoxybenzyl 7-methyloctanoate]		Δ	weak vasodilating effect		
	CC(C)CCCCC(=O)OCc1ccc2c(c1)OCO2 [compound A-2, Piperonyl 6-methylheptanoate]	x	x	did not show a vasodilating effect		
89.1%	COc1ccc(COC(=O)CCCCCCC(C)C)cc1OC [compound D, Veratryl 8-methylnonanoate]		x	did not show a vasodilating effect	not decomposed even after purification by PTLC	
43.1%	CCCCCCCCCC(=O)OCc1ccc(O)c(OC)c1 [vanillyl decanoate, reference compound]				decomposed by the contact with silica gel	
	CC(C)CCCCCC(=O)OCc1ccc2c(c1)OCO2 [compound A-1, Piperonyl 7-methyloctanoate]	x	x	did not show a vasodilating effect		
	CC(C)CCCCCCC(=O)OCc1ccc(O)cc1 [compound F, 4-hydroxybenzyl 8-methylnonanoate]		Δ	weak vasodilating effect		
	COc1cc(COC(=O)CCCC/C=C/C(C)C)ccc1O [capsiate, 4-hydroxy-3-methoxybenzyl (E)-8-methyl-6-nonenoate, reference compound]	∘	∘			Vasodilatory effect for hairless mouse (red spots, visual) ([1]; 1 wt % in liquid paraffin): Δ
84.3%	CC(C)CCCCCCC(=O)OCc1ccc2c(c1)OCO2 [compound A, Piperonyl 8-methylnonanoate]		Δ	weak vasodilating effect	stabler than vanillyl decanoate even upon contact with silica gel	
81.0%	COc1ccc(COC(=O)CCCCCCC(C)C)cc1O [compound B, Isovanillyl 8-methylnonanoate]		∘	strong vasodilating effect	not decomposed even after purification by PTLC	
90.2%	COc1ccc(COC(=O)CCCCCCC(C)C)cc1 [compound C, 4-methoxybenzyl 8-methylnonanoate]		∘	strong vasodilating effect	not decomposed even after purification by PTLC	

Structure (SMILES)	Yield (recovery rate) after purification by PTLC, index of stability [2]	Vasodilatory effect for hairless mouse (red spots, visual) ([1]; 5 wt % in ethanol)	Vasodilatory effect for hairless mouse (red spots, visual) ([1]; 5 wt % in liquid paraffin)	Vasodilating effect [1]	Stability on purification by PTLC (contact with silica gel), in words [2]	further results
COc1cc(COC(=O)CCCCCCC(C)C)ccc1OC(C)=O [compound G, 4-acetoxy-3-methoxybenzyl 8-methylnonanoate]	82.9% and 85.7%		∘	strong vasodilating effect	not decomposed even after purification by PTLC	
